Assays:
Melanotic Melanoma B 16 = assay: "Bl" test, Melanotic Melanoma B 16 Protocol 1.300; type: in vivo; settings: mice, subcutaneous, water solution
Method: The in vivo "Bl" were carried out on mice according to "Melanotic Melanoma B 16--Protocol 1.300" (id., p. 11) with reporting and evaluation procedures identical to those of the "PS" test.
(§1) As one example, the "PS" and "Bl" tests noted above involved subcutaneous administration of the test compounds in simple water solution forms. It is expected that water solutions of bouvardin and deoxybouvardin would ordinarily be stabilized by addition of antioxidant substances.

[1] = system: cells of human adenocarcinoma of the nasopharynx (KB); assay: "KB" test, Cell Culture Screen KB Protocol 1.600; type: cell-based; settings: 3 days after drug addition, average
Method: The in vitro "KB" tests were carried out according to "Cell Culture Screen KB--Protocol 1.600" (id., p. 17) using cells of human adenocarcinoma of the nasopharynx. Test results are expressed as the dose that inhibits cell growth to 50% of control growth by 3 days after drug addition.

Solubility in water = type: physicochemical
Excerpt: as §1

[2] = system: Lymphocytic Leukemia P388; assay: "PS" test, Lymphocytic Leukemia P388 Protocol 1.200; type: in vivo; settings: mice; for RANGE OF % T/C: "PS" test
Method: The in vivo "PS" tests were carried out on mice according to "Lymphocytic Leukemia P388--Protocol 1.200", published in Cancer Chemotherapy Reports, Part 3, Vol. 3, No. 2, page 9, (September 1972) with results reported in terms of percent survivals of test versus control animals (%T/C).
as §1

SMILES: COc1ccc(C[C@H]2C(=O)N[C@@H](C)C(=O)N(C)[C@@H]3C(=O)N(C)[C@@H](Cc4ccc(O)c(c4)Oc4ccc(cc4)[C@@H]3O)C(=O)N[C@H](C)C(=O)N[C@@H](C)C(=O)N2C)cc1 [bouvardin]
- "Bl" test activity, % T/C (Melanotic Melanoma B 16; doses 0.12 to 2.0 mg/kg): 134-152 % T/C
- "KB" test ED 50 (dose that inhibits cell growth to 50% of control growth) [1]: about 4.3×10^-7 μg/L
- Solubility in water (Solubility in water): partially soluble in water
- RANGE OF % T/C ([2]; DOSE 0.04): 134 % T/C
- RANGE OF % T/C ([2]; DOSE 0.07): 139 % T/C
- RANGE OF % T/C ([2]; DOSE 0.11): 150 to 164 % T/C
- RANGE OF % T/C ([2]; DOSE 0.16): 158 % T/C
- RANGE OF % T/C ([2]; DOSE 0.25): 161 to 188 % T/C
- RANGE OF % T/C ([2]; DOSE 0.50): 135 to 186 % T/C
- RANGE OF % T/C ([2]; DOSE 1.00): 148 to 217 % T/C
- RANGE OF % T/C ([2]; DOSE 2.00): 167 to 205 % T/C
- "PS" test activity, % T/C (survival of test versus control animals) ([2]; dose levels 0.02 to 2.0 mg/kg, subcutaneous, water solution): 135 to 217 % T/C

SMILES: COc1ccc(C[C@H]2C(=O)N[C@@H](C)C(=O)N(C)[C@H]3Cc4ccc(cc4)Oc4cc(ccc4O)C[C@@H](C(=O)N[C@H](C)C(=O)N[C@@H](C)C(=O)N2C)N(C)C3=O)cc1 [deoxybouvardin]
- "Bl" test activity, % T/C (Melanotic Melanoma B 16; 0.25 to 8.0 mg/kg doses): 133-175 % T/C
- "KB" test ED 50 (dose that inhibits cell growth to 50% of control growth) [1]: 1.9e-08 ng/mL
- Solubility in water (Solubility in water): partially soluble in water
- "PS" test activity, % T/C ([2]; 0.04 to 2.0 mg/kg doses, subcutaneous, water solution): 142-216 % T/C

From patent US4226856A, “Preparation and use of bouvardin and deoxybouvardin” (University Patents, Inc., priority 1978, dated 1980)
